Assay results as given in patent US20260022143A1, “Cyclic Peptide Inhibitors of IL-23” (JANSSEN PHARMACEUTICA NV, priority 2022, published 2026).
Starred links: 1 amine or outer side, 2 acyl side, 3 side chain; linkers in the order of their positions; H or OH if unused. Positions of bridges follow the written chain, without caps; N, C: chain ends. Non-standard residues stand in square brackets, D forms with d. Residues, ends and D or L forms follow the SMILES beside them. *: point of attachment. X36 = C[N+]1(CCCc2cn(-c3ccc(C[C@H](N[*:1])C(=O)[*:2])cc3)nn2)CCOCC1; Me3N+(CH2)2O(CH2)2O(CH2)2CO = C[N+](C)(C)CCOCCOCCC(=O)*; CH2CH2OCH2CH2OCH2CH2NMe3+ = C[N+](C)(C)CCOCCOCC*; Phe(4-N3) = [N-]=[N+]=Nc1ccc(C[C@H](N)C(=O)O)cc1; Trp(7-Me) = Cc1cccc2c(C[C@H](N)C(=O)O)c[nH]c12; X1 = CN(CC[C@H](N[*:1])C(=O)[*:2])[*:3]; 2Nal = N[C@@H](Cc1ccc2ccccc2c1)C(=O)O; AEF = NCCOc1ccc(C[C@H](N)C(=O)O)cc1; 3Pal = N[C@@H](Cc1cccnc1)C(=O)O; Lys(Me) = CNCCCC[C@H](N)C(=O)O; X7 = COCCOCCOCCOCCOCCOCCC(=O)*; Pen = CC(C)(S)[C@H](N)C(=O)O; Thp = NC1(C(=O)O)CCOCC1; X3 = C[N+](C)(C)CCCCC*; Me2NCH2CH2 = CN(C)CC*; Sar = CNCC(=O)O

Key:
IL-23R = molecular target: T1, IL-23R (Homo sapiens, UniProt Q5VWK5); experiment: IL23R Reporter Assay; format: cell-based; settings: HEK293 cells containing IL-23R, IL-12RP1 and STAT-inducible firefly luciferase reporter; 10 ng/mL IL-23 (EC90); 5 h at 37° C.; read-out: IL23R Reporter Assay
T1 construct: host or cells: HEK293
T1 sequence (Q5VWK5 24-629): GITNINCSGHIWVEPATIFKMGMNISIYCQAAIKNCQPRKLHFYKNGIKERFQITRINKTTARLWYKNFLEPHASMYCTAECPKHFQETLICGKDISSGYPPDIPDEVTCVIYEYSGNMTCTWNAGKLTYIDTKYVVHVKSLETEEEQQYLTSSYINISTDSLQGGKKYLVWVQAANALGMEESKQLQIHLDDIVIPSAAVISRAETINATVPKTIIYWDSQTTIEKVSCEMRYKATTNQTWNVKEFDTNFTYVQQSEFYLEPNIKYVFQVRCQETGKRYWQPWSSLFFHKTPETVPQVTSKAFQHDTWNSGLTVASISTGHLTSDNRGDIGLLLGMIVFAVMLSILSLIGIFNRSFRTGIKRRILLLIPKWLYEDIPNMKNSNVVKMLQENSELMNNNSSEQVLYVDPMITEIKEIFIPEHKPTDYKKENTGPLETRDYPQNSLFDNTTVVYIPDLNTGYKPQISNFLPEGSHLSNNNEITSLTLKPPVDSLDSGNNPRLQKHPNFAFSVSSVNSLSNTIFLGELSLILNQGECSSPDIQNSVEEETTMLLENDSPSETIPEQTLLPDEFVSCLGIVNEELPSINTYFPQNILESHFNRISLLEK

[1] = Exposed Polar Surface Area (EPSA); format: physicochemical; settings: SFC on Chirex 3014 column; sample 1 mM DMSO stock; read-out: EPSA
Method in brief: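 Retention-based polarity: supercritical CO2 with 20 mM ammonium formate in MeOH (5–60%, 20%/min), Chirex 3014 column, 35 °C. Calibrated against 8 standards to give EPSA (Å^2); each sample measured twice.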

| Compound | IC50 (IL-23R) | EPSA [1] |
| --- | --- | --- |
| CC(=O)N[C@@H]1C(=O)N[C@@H](C)C(=O)N[C@@H]([C@@H](C)O)C(=O)N[C@@H](Cc2c[nH]c3c(C)cccc23)C(=O)N[C@@H](C)C(=O)N[C@H](C(=O)N[C@@H](Cc2ccc(OCCN(C)C)cc2)C(=O)N[C@@H](Cc2ccc3ccccc3c2)C(=O)NC2(C(=O)N[C@@H](C)C(=O)N[C@@H](CC(N)=O)C(=O)N[C@@H](Cc3cccnc3)C(=O)N(C)CC(=O)N(C)C)CCOCC2)C(C)(C)SSC1(C)C [compound 121] (Ac-[Pen]AT[Trp(7-Me)]A[Pen]Y(Me2NCH2CH2)[2Nal][Thp]AN[3Pal][Sar]-NMe2; disulfide 1-6) | 13 nM | 145 A^2 |
| COCCOCCOCCOCCOCCOCCC(=O)N(C)CC[C@@H]1NC(=O)[C@H](Cc2c[nH]c3c(C)cccc23)NC(=O)[C@H]([C@@H](C)O)NC(=O)[C@H](CC(=O)N(C)C)NC(=O)[C@@H](NC(C)=O)C(C)(C)SSC(C)(C)[C@@H](C(=O)N[C@@H](Cc2ccc(OCCN)cc2)C(=O)N[C@@H](Cc2ccc3ccccc3c2)C(=O)NC2(C(=O)N[C@@H](CCN(C)C(=O)CCOCCOCCOCCOCCOCCOC)C(=O)N[C@@H](CC(N)=O)C(=O)N[C@@H](Cc3cccnc3)C(=O)N(C)CC(=O)N(C)C)CCOCC2)NC1=O [compound 141, MeCO-Pen(3)-N(N(Me)2)-T-7MeW-Dab(NMeCOmPEG6)-Pen(3)-AEF-2Nal-THP-Dab(NMeCOmPEG6)-N-3Pya-Sar-CON(Me)2] (Ac-[Pen]D(NMe2)T[Trp(7-Me)][X1](X7)[Pen][AEF][2Nal][Thp][X1](X7)N[3Pal][Sar]-NMe2; disulfide 1-6) | 5.7 nM | 140 A^2 |
| CC(=O)NCCCC[C@@H]1NC(=O)[C@H](Cc2c[nH]c3c(C)cccc23)NC(=O)[C@H]([C@@H](C)O)NC(=O)[C@H](CC(N)=O)NC(=O)[C@@H](NC(C)=O)C(C)(C)SSC(C)(C)[C@@H](C(=O)N[C@@H](Cc2ccc(-n3cc(CCC[N+]4(C)CCOCC4)nn3)cc2)C(=O)N[C@@H](Cc2ccc3ccccc3c2)C(=O)NC2(C(=O)N[C@@H](CCCCNC(C)=O)C(=O)N[C@@H](CC(N)=O)C(=O)N[C@@H](Cc3cccnc3)C(=O)N(C)CC(N)=O)CCOCC2)NC1=O [compound 440] (Ac-[Pen]NT[Trp(7-Me)]K(Ac)[Pen][X36][2Nal][Thp]K(Ac)N[3Pal][Sar]-NH2; disulfide 1-6 (inferred)) | 2 nM | 163 A^2 |
| CNC(=O)C[C@@H]1NC(=O)[C@@H](NC(C)=O)C(C)(C)SSC(C)(C)[C@@H](C(=O)N[C@@H](Cc2ccc(OCCN)cc2)C(=O)N[C@@H](Cc2ccc3ccccc3c2)C(=O)NC2(C(=O)N[C@@H](CCCCNC(C)=O)C(=O)N[C@@H](CC(N)=O)C(=O)N[C@@H](Cc3cccnc3)C(=O)N(C)CC(N)=O)CCOCC2)NC(=O)[C@H](CCCCNC(C)=O)NC(=O)[C@H](Cc2c[nH]c3c(C)cccc23)NC(=O)[C@H]([C@@H](C)O)NC1=O [compound 46] (Ac-[Pen]D(NHMe)T[Trp(7-Me)]K(Ac)[Pen][AEF][2Nal][Thp]K(Ac)N[3Pal][Sar]-NH2; disulfide 1-6 (inferred)) | 3.2 nM | 162 A^2 |
| CC(=O)N(C)CCCC[C@@H]1NC(=O)[C@H](Cc2c[nH]c3c(C)cccc23)NC(=O)[C@H]([C@@H](C)O)NC(=O)[C@H](CC(=O)N(C)C)NC(=O)[C@@H](NC(=O)CCOCCOCC[N+](C)(C)C)C(C)(C)SSC(C)(C)[C@@H](C(=O)N[C@@H](Cc2ccc(OCCCCC[N+](C)(C)C)cc2)C(=O)N[C@@H](Cc2ccc3ccccc3c2)C(=O)NC2(C(=O)N[C@@H](CCC(=O)O)C(=O)N[C@@H](CC(N)=O)C(=O)N[C@@H](Cc3cccnc3)C(=O)N(C)CC(=O)N(C)C)CCOCC2)NC1=O [compound 165, cPEG3aCO-Pen(3)-N(N(Me)2)-T-7MeW-K(NMeAc)-Pen(3)-TMAPF-2Nal-THP-E-N-3Pya-Sar-CON(Me)2] ({Me3N+(CH2)2O(CH2)2O(CH2)2CO}-[Pen]D(NMe2)T[Trp(7-Me)][Lys(Me)](Ac)[Pen]Y(X3)[2Nal][Thp]EN[3Pal][Sar]-NMe2; disulfide 1-6) | 4.3 nM | 151 A^2 |
| CC(=O)NCCCC[C@@H]1NC(=O)[C@H](Cc2c[nH]c3c(C)cccc23)NC(=O)[C@H]([C@@H](C)O)NC(=O)[C@H](CC(N)=O)NC(=O)[C@@H](NC(C)=O)C(C)(C)SSC(C)(C)[C@@H](C(=O)N[C@@H](Cc2ccc(OCCCCC[N+](C)(C)C)cc2)C(=O)N[C@@H](Cc2ccc3ccccc3c2)C(=O)NC2(C(=O)N[C@@H](CCCCNC(=O)CCCCCc3ccc(I)cc3)C(=O)N[C@@H](CC(N)=O)C(=O)N[C@@H](Cc3cccnc3)C(=O)N(C)CC(N)=O)CCOCC2)NC1=O [compound 546, MeCO-Pen(3)-N-T-7MeW-K(Ac)-Pen(3)-TMAPF-2Nal-THP-K(IPB)-N-3Pya-Sar-CONH2] | 7.2 nM | 168 A^2 |
| CC(=O)N(C)CCCC[C@H](NC(=O)[C@H](C)NC(=O)[C@H](Cc1ccc2ccccc2c1)NC(=O)[C@H](Cc1ccc(OCCOCCOCC[N+](C)(C)C)cc1)NC(=O)[C@H]1NC(=O)[C@H](C)NC(=O)[C@H](Cc2c[nH]c3c(C)cccc23)NC(=O)[C@H]([C@@H](C)O)NC(=O)[C@H](C)NC(=O)[C@@H](NC(=O)CCOCCOCC[N+](C)(C)C)C(C)(C)SSC1(C)C)C(=O)N[C@@H](CC(N)=O)C(=O)N[C@@H](Cc1cccnc1)C(=O)N(C)CC(=O)N(C)C [compound 468, cPEG3aCO-Pen(3)-A-T-7MeW-A-Pen(3)-APEG3f-2Nal-A-K(NMeAc)-N-3Pya-Sar-CON(Me)2] ({Me3N+(CH2)2O(CH2)2O(CH2)2CO}-[Pen]AT[Trp(7-Me)]A[Pen]Y(CH2CH2OCH2CH2OCH2CH2NMe3+)[2Nal]A[Lys(Me)](Ac)N[3Pal][Sar]-NMe2; disulfide 1-6) | 25 nM | 151 A^2 |
| CC(=O)N(C)CCCC[C@@H]1NC(=O)[C@H](Cc2c[nH]c3c(C)cccc23)NC(=O)[C@H]([C@@H](C)O)NC(=O)[C@H](CC(=O)N(C)C)NC(=O)[C@@H](NC(=O)CCOCCOCC[N+](C)(C)C)C(C)(C)SSC(C)(C)[C@@H](C(=O)N[C@@H](Cc2ccc(N=[N+]=[N-])cc2)C(=O)N[C@@H](Cc2ccc3ccccc3c2)C(=O)NC2(C(=O)N[C@@H](CCCCN(C)C(C)=O)C(=O)N[C@@H](CC(N)=O)C(=O)N[C@@H](Cc3cccnc3)C(=O)N(C)CC(=O)N(C)C)CCOCC2)NC1=O [compound 331, cPEG3aCO-Pen(3)-N(N(Me)2)-T-7MeW-K(NMeAc)-Pen(3)-F(4N3)-2Nal-THP-K(NMeAc)-N-3Pya-Sar-CON(Me)2] ({Me3N+(CH2)2O(CH2)2O(CH2)2CO}-[Pen]D(NMe2)T[Trp(7-Me)][Lys(Me)](Ac)[Pen][Phe(4-N3)][2Nal][Thp][Lys(Me)](Ac)N[3Pal][Sar]-NMe2; disulfide 1-6) | 1.2 nM | 153 A^2 |
| CC(=O)N[C@@H]1C(=O)N[C@@H](CC(=O)N(C)C)C(=O)N[C@@H]([C@@H](C)O)C(=O)N[C@@H](Cc2c[nH]c3c(C)cccc23)C(=O)N[C@@H](CCCCN(C)C(C)=O)C(=O)N[C@H](C(=O)N[C@@H](Cc2ccc(OCCN(C)C)cc2)C(=O)N[C@@H](Cc2ccc3ccccc3c2)C(=O)NC2(C(=O)N[C@@H](CCCCN(C)C(C)=O)C(=O)N[C@@H](CC(N)=O)C(=O)N[C@@H](Cc3cccnc3)C(=O)N(C)CC(=O)N(C)C)CCOCC2)C(C)(C)SSC1(C)C [compound 122, MeCO-Pen(3)-N(N(Me)2)-T-7MeW-K(NMeAc)-Pen(3)-AEF(N(Me)2)-2Nal-THP-K(NMeAc)-N-3Pya-Sar-CON(Me)2] (Ac-[Pen]D(NMe2)T[Trp(7-Me)][Lys(Me)](Ac)[Pen]Y(Me2NCH2CH2)[2Nal][Thp][Lys(Me)](Ac)N[3Pal][Sar]-NMe2; disulfide 1-6) | 2.1 nM | 141 A^2 |
